The values below are quoted from earlier work in US20200245614A1, “AGROCHEMICAL EMULSIFIABLE CONCENTRATE COMPOSITION” (priority 2017, published 2020).

The conditions of one data set: n-octanol/water.
For the molecule `CCCCOC(=O)OCCCC` [Composition B-3, Di-n-butyl carbonate], the LogPow value is given as 3.47. For `CC(C)COC(=O)CCCCC(=O)OCC(C)C` [Composition B-4, Diisobutyl adipate], the LogPow value is 3.70. On to `CCCCCCCCCCCC(=O)OC` [Composition B-5, Methyl laurate], for which the LogPow value is on record as 5.41.

For the molecule `COCCOCCO` [Composition C-1, Diethylene glycol monomethyl ether], the LogPow value was −1.18.

As for `OC1CCCCC1` [Composition C-4, Cyclohexanol], the LogPow value was 1.2. Take `O=C1CCCCC1` [Composition C-5, Cyclohexanone]: the LogPow value is listed as 0.86. In the case of `CCCCOCCOCCO` [Composition C-6, Butyl diglycol], the LogPow value is 0.56. For the molecule `COCC(C)O` (stereo not shown) [Composition C-9, Propylene glycol monomethyl ether], the LogPow value is −0.342.

`CN1CCCC1=O` [Composition C-10, N-methyl-2-pyrrolidone]: the LogPow value was −0.38.

Turning to `COC(C)COC(C)CO` (stereo not shown) [Composition C-11, Dipropylene glycol methyl ether], the LogPow value was −0.46. `CC1COC(=O)O1` (stereo not shown) [Composition C-12, Propylene carbonate]: the LogPow value is −0.5.

`O=C1CCCO1` [Composition C-13, γ-Butyrolactone]: the LogPow value was −0.566. `CCCCN1CCCC1=O` [Composition C-16, N-Butylpyrrolidone]: the LogPow value is 1.27. For `COCCOCCOCCO` [Composition C-17, Triethylene glycol monomethyl ether], the LogPow value was −1.12. For `CC(O)COc1ccccc1` (stereo not shown) [Composition C-19, Phenoxypropanol], the LogPow value was 1.51.

With `OCCOCc1ccccc1` [Composition C-20, Benzyl glycol], the LogPow value is 1.11. As to `COC(=O)C(C)CCC(=O)N(C)C` (stereo not shown) [Composition C-21, 5-(Dimethylamino)-2-methyl-5-oxopentanoic acid methyl ester], the LogPow value was 0.39. In the case of `CCCCCCCC/C=C\CCCCCCCC(=O)OC` [Composition C-22, Methyl oleate], the LogPow value is given as 7.45.

For `CCCCCCCCO` [Composition C-24, Octanol], the LogPow value is recorded as 3.

As for `CCCCOC(C)=O` [Composition C-26, Butyl acetate], the LogPow value is 1.82.

Turning to `CCCCOCCOCCOCCCC` [Composition C-27, Dibutyl diglycol], the LogPow value is reported as 1.92. For the molecule `CCCCC(CC)COCCOCCO` (stereo not shown) [Composition C-28, 2-ethylhexyl diglycol], the LogPow value is given as 2.

Turning to `CC(C)=O` [acetone], the LogPow value is listed as −0.24. For `CO` [methanol], the LogPow value is on record as −0.82.

For the molecule `CCC(C)=O` [methyl ethyl ketone], the LogPow value is given as 0.29. On to `CCCCCO` [pentanol], for which the LogPow value is on record as 1.51. For Xylene [Composition B-2], the LogPow value is 3.15.

Staying with this data set, now noted: n-octanol/water; listed as gamma-butyl lactone.
For `O=C1CCCO1` [Composition C-13, γ-Butyrolactone], the LogPow value is given as −0.57.
